Results published in ChEMBL document CHEMBL1201862, “PubChem BioAssay data set” (2004).
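In this assay, cells in 96-well plates receive the compound at five concentrations for 48 hours. Endpoints are linearly interpolated between the surrounding concentrations. GI50 = concentration required for 50% inhibition of growth.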 The source made the active and inactive calls. Cut-off read from the data, not from the text of the source: active = GI50 up to about 1.1 µM and inactive = higher.

Columns and labels:
Assay in all cases: inhibition of tumour cell growth, NCI panel, 48 h
786-0 = test system: 786-0
A498 = test system: A498
A549 = test system: A549
ACHN = test system: ACHN
BT-549 = test system: BT-549
CAKI-1 = test system: CAKI-1
CCRF-CEM = test system: CCRF-CEM
COLO 205 = test system: COLO 205
DU-145 = test system: DU-145
EKVX = test system: EKVX
HCC 2998 = test system: HCC 2998
HCT-116 = test system: HCT-116
HCT-15 = test system: HCT-15
HL-60 = test system: HL-60
HOP-62 = test system: HOP-62
HOP-92 = test system: HOP-92
HT-29 = test system: HT-29
Hs-578T = test system: Hs-578T
IGROV-1 = test system: IGROV-1
K562 = test system: K562
KM12 = test system: KM12
LOX IMVI = test system: LOX IMVI
M14 = test system: M14
MCF7 = test system: MCF7
MDA-MB-231 = test system: MDA-MB-231
MDA-MB-435 = test system: MDA-MB-435
MDA-N = test system: MDA-N
MOLT-4 = test system: MOLT-4
NCI-H460 = test system: NCI-H460
NCI/ADR-RES = test system: NCI/ADR-RES
OVCAR-3 = test system: OVCAR-3
OVCAR-4 = test system: OVCAR-4
OVCAR-5 = test system: OVCAR-5
OVCAR-8 = test system: OVCAR-8
PC-3 = test system: PC-3
RPMI-8226 = test system: RPMI-8226
RXF 393 = test system: RXF 393
SF-268 = test system: SF-268
SF-295 = test system: SF-295
SF-539 = test system: SF-539
SK-MEL-28 = test system: SK-MEL-28
SK-MEL-2 = test system: SK-MEL-2
SK-MEL-5 = test system: SK-MEL-5
SK-OV-3 = test system: SK-OV-3
SN12C = test system: SN12C
SNB-19 = test system: SNB-19
SNB-75 = test system: SNB-75
SR = test system: SR
SW-620 = test system: SW-620
T47D = test system: T47D
TK-10 = test system: TK-10
U-251 = test system: U-251
UACC-257 = test system: UACC-257
UACC-62 = test system: UACC-62
UO-31 = test system: UO-31

Measured: GI50

O=C1/C(=C/c2ccccc2S)N=C(c2ccccc2)N1c1nc2c(Cl)cc(Cl)cc2s1
31.1 µM: HCT-15
inactive: 786-0 24.3 µM | A498 18.3 µM | A549 21.9 µM | ACHN 22.6 µM | BT-549 26.7 µM | CAKI-1 32.6 µM | CCRF-CEM 2.27 µM | COLO 205 21.7 µM | DU-145 32.5 µM | EKVX 11.6 µM | HCC 2998 26.4 µM | HCT-116 17.7 µM | HL-60 16.4 µM | HOP-62 16.6 µM | HOP-92 19.5 µM | HT-29 18.4 µM | Hs-578T 23.7 µM | IGROV-1 20.9 µM | K562 23.5 µM | KM12 24.3 µM | LOX IMVI 20.4 µM | M14 25.9 µM | MCF7 22.3 µM | MDA-MB-231 40.4 µM | MDA-MB-435 21.8 µM | MDA-N 18.1 µM | MOLT-4 12.6 µM | NCI-H460 27.5 µM | NCI/ADR-RES 26.8 µM | OVCAR-3 17.3 µM | OVCAR-4 28.4 µM | OVCAR-5 18.7 µM | OVCAR-8 22.2 µM | PC-3 23.9 µM | RPMI-8226 21.8 µM | RXF 393 23.7 µM | SF-268 36.3 µM | SF-295 24.7 µM | SF-539 17 µM | SK-MEL-28 35.4 µM | SK-MEL-2 24 µM | SK-MEL-5 17.7 µM | SK-OV-3 20.9 µM | SN12C 22.3 µM | SNB-19 27.8 µM | SNB-75 30.1 µM | SR 15.2 µM | SW-620 27.7 µM | T47D 31.7 µM | TK-10 37.1 µM | U-251 23.4 µM | UACC-257 28.9 µM | UACC-62 20.4 µM | UO-31 21 µM
